Values joined by “and” are separate entries in the source; they are usually repeats but may differ in a detail not shown here. Equal values may be shown once.
Experiments:
Apis mellifera = settings: acute; for LD50: mortality
Plant = settings: acute
Pontoscolex corethrurus = settings: for LC50: acute, mortality
Rattus norvegicus = settings: for LD50: acute, mortality
Oryctolagus sp. = settings: developmental; development
Colinus virginianus = settings: for LC50: diet
Anas platyrhynchos = settings: acute; oral; unspecified; mortality
Tagia sp. = settings: chronic/long-term
Anatidae = settings: reproductive
[1] = chronic, duration: 2 years, oral, diet, M, organ weight

Row | Structure (SMILES) | LEC (Apis mellifera; dermal) [µg/piece] | LD50 (Apis mellifera; oral, unspecified) [µg/piece] | LEC (Plant) [µg/L] | LC50 (Pontoscolex corethrurus) [mg/kg] | NOEC (Pontoscolex corethrurus; chronic/long-term) [mg/kg] | LD50 (Rattus norvegicus; oral) [mg/kg] | NOAEL (Rattus norvegicus; chronic) [mg/kg-day] | NOAEL (Rattus norvegicus; [1]) [mg/kg-day] | NOAEL (Oryctolagus sp.) [mg/kg-day] | LC50 (Colinus virginianus; acute, oral, mortality) [mg/kg-day] | LD50 (Colinus virginianus; acute, oral, mortality) [mg/kg] | LEC (acute) | LEC (chronic) | LD50 (Apis mellifera; dermal) [µg/piece] | LD50 (Anas platyrhynchos) [mg/kg] | NOEC (Tagia sp.) [mg/kg] | NOAEL (Rattus norvegicus; reproduction developmental, reproduction) [mg/kg-day] | NOAEL (Rattus norvegicus; subchronic, duration: 13 weeks, oral, diet, M/F, histopathology: nonneoplastic) [mg/kg-day] | NOEC (Anatidae) [mg/kg-day] | NOEC (Colinus virginianus; reproduction developmental) [mg/kg-day]
1 | CCCCOCCOC(=O)COc1nc(Cl)c(Cl)cc1Cl [Triclopyr butotyl] | > 100 | > 100 | 2200 | > 521 | 9.6 | 803 | 5 | 3 | 30 | 1890 | 735 | – | – | – | – | – | – | – | – | –
2 | O=C(O)COc1nc(Cl)c(Cl)cc1Cl [Triclopyr] | – | > 100 | – | > 983 | – | 630 | – | 3 | 30 | 1030 | – | 117 mg/L and > 131 mg/L and 75.8 mg/L | 46.3 mg/L and 48.5 mg/L | > 100 | 1700 | 9.6 | 25 | 5 | 30 | 500

From EPA's ToxValDB 9.5 (doi:10.2903/j.efsa.2006.56r)
